What was measured:
[1] = test system: Proteus mirabilis (DSM 4479); experiment: MIC by broth microdilution (CLSI); format: cell-based; conditions: DSM4479
Experimental: Minimum Inhibitory Concentrations (MICs) versus Escherichia coli (NCTC 13441) and Klebsiella pneumoniae (NCTC 13438) (planktonic bacteria) were determined by the broth microdilution procedure in line with the guidelines of the Clinical and Laboratory Standards Institute (Clinical and Laboratory Standards Institute. Methods for Dilution Antimicrobial Susceptibility Tests for Bacteria That Grow Aerobically, Approved Standard-Eleventh Edition, CLSI document M07, 11 Jan. 2018). The broth dilution method involved a two-fold serial dilution of compounds in 96-well microtitre plates, giving a final concentration range of 0.39-200 μM and a maximum final concentration of 2% DMSO. The bacterial strains tested were Escherichia coli (NCTC 13441) and Klebsiella pneumoniae (NCTC 13438). Strains were grown in cation-adjusted Müller-Hinton broth or on Luria Bertani agar at 37° C. in an ambient atmosphere. The MIC (μM) was determined as the lowest concentration of compound that inhibits growth following a 20-24 hour incubation period.
Minimum Inhibitory Concentrations (MICs) versus Proteus mirabilis (DSM 4479) were determined for compound (I) and comparative compounds (II) and (III) using the methodology outlined above.

[2] = Volume of distribution (Vss) from mouse plasma profiles; format: in vivo; conditions: mice, 5 mg/kg IV bolus, 2 compartment model
Experimental: The volume of distribution (Vss) of compound (I) and comparative compounds (II) and (III) was determined from analysis of plasma concentration time profiles obtained from rodent species (mice), following 5 mg/kg IV bolus administration respectively. The volume of distribution was obtained by analysing the rodent plasma profiles for compound (I) and comparative compounds (II) and (III) using a 2 compartment IV bolus model in PK Solver (Excel). The volume of distribution data for compound (I) and comparative compound (II) was collected in separate experiments carried out on different days, and compared in Table 6.

[3] = Lipophilicity, Log P measured with SiriusT3 (octanol titration); format: physicochemical; conditions: octanol / aqueous sample solution
Experimental: Log P values of compound (I) and comparative compound (III) were measured using the SiriusT3 instrument from Sirius Analytical by performing an acid-based titration and measuring the shift in pKa when the sample solution is in contact with an immiscible solvent (octanol). Log P for the comparative compound (II) was calculated using Marvin (physico-chemical calculation software). The lipophilicity data for compound (I) and comparative compounds (II) and (III) was collected in separate experiments carried out on different days, and compared in Table 5.

[4] = test system: Klebsiella pneumoniae ATCC 43816; experiment: Murine respiratory infection proof-of-concept study, IV bolus; format: in vivo; conditions: 26 h from initial infection
Experimental: Compound (I) and comparative compound (III) were evaluated in proof-of-concept studies in murine models for the treatment of a respiratory infection with Gram-negative bacteria of the order Enterobacterales, a bacteraemia or bloodstream infection with Gram-negative bacteria of the order Enterobacterales, and a urinary tract infection with Gram-negative bacteria of the order Enterobacterales. Each dot, triangle or square indicator represents a single mouse. LOD refers to the limit of detection of the bacteria. […] Each of the proof-of-concept studies was carried out separately. By vehicle is meant pharmaceutically acceptable carrier or excipient. For the proof-of-concept study for the treatment of a respiratory infection caused or exacerbated by Gram-negative bacteria of the order Enterobacterales, CD-1 mice were infected with Klebsiella pneumoniae ATCC 43816. Two hours after infection (‘pre-treatment’ in FIG. 2), a vehicle (20% hydroxypropyl β cyclodextrin) containing no compound (I) or comparative compound (III), or a vehicle (20% hydroxypropyl β cyclodextrin) containing compound (I) or comparative compound (III), was administered by IV bolus at 20 mg/kg, TID (8 hrs apart), over one day.

[5] = test system: E. coli BAA-2469 (NDM-1 positive); experiment: Murine bacteraemia / bloodstream infection proof-of-concept study, IV bolus; format: in vivo; conditions: single dose IV bolus 20 mg/kg, 9 h from initial infection
Experimental: Compound (I) and comparative compound (III) were evaluated in proof-of-concept studies in murine models for the treatment of a respiratory infection with Gram-negative bacteria of the order Enterobacterales, a bacteraemia or bloodstream infection with Gram-negative bacteria of the order Enterobacterales, and a urinary tract infection with Gram-negative bacteria of the order Enterobacterales. Each dot, triangle or square indicator represents a single mouse. LOD refers to the limit of detection of the bacteria. […] Each of the proof-of-concept studies was carried out separately. By vehicle is meant pharmaceutically acceptable carrier or excipient.
For the proof-of-concept study for the treatment of a bacteraemia or bloodstream infection with Gram-negative bacteria of the order Enterobacterales, CD-1 mice were infected with human urine isolate E. coli BAA-2469 (NDM-1 positive). One hour after infection (‘pre-treatment’ in FIG. 3), a vehicle (20% hydroxypropyl β cyclodextrin) containing no compound (I) or comparative compound (III), or a vehicle (20% hydroxypropyl β cyclodextrin) containing compound (I) or comparative compound (III), was administered by as a single dose IV bolus at 20 mg/kg.

E. coli UT189 = experiment: Murine urinary tract infection proof-of-concept study, IV bolus; format: in vivo; conditions: IV bolus 20 mg/kg TID over 3 days, 96 h after initial infection
Experimental: Compound (I) and comparative compound (III) were evaluated in proof-of-concept studies in murine models for the treatment of a respiratory infection with Gram-negative bacteria of the order Enterobacterales, a bacteraemia or bloodstream infection with Gram-negative bacteria of the order Enterobacterales, and a urinary tract infection with Gram-negative bacteria of the order Enterobacterales. Each dot, triangle or square indicator represents a single mouse. LOD refers to the limit of detection of the bacteria. […] Each of the proof-of-concept studies was carried out separately. By vehicle is meant pharmaceutically acceptable carrier or excipient. For the proof-of-concept study for the treatment of a urinary tract infection with Enterobacterales, female C3H/HeN mice were infected with E. coli UT189. Twenty-four hours after infection (‘pre-treatment’ in FIGS. 4a-c), a vehicle (20% hydroxypropyl β cyclodextrin) containing no compound (I) or comparative compound (III), or a vehicle (20% hydroxypropyl β cyclodextrin) containing compound (I) or comparative compound (III), was administered by IV bolus of 20 mg/kg, TID (8 hrs apart), over 3 days.

| MIC [1] | Vd [2] | logP [3] | Structure (SMILES) | reduction of bacterial burden in the lung compared to vehicle ([4]; CD-1 mice, IV bolus 20 mg/kg TID over one day) | CFU value in lung relative to stasis level ([4]; IV bolus 20 mg/kg TID) | reduction of bacterial burden in the blood compared to vehicle ([5]; CD-1 mice) | bacterial burden (CFU) in the blood at end of study [5] | reduction of bacterial burden in the bladder compared to vehicle (E. coli UT189) | reduction of bacterial burden in the urine compared to vehicle (E. coli UT189; female C3H/HeN mice) |
| --- | --- | --- | --- | --- | --- | --- | --- | --- | --- |
| > 200 µM | 7.7 L/kg | – | Cc1cc(-c2[nH]c(N)nc2-c2ccc3c(c2)N(C(=O)CN)CCO3)ccn1 [Comparative Compound (II)] | – | – | – | – | – | – |
| > 200 µM | 7.9 L/kg | 1.03 | Cc1cnccc1-c1[nH]c(N)nc1-c1ccc2c(c1)N(C(=O)CN)CCO2 [Comparative Compound (III), reference compound] | 4.16 log | remained relatively close to the stasis level | 4.86 log | remained on or above the stasis level | 3.71 log | 3.36 log |

— patent US20240228474A1, “ANTIBACTERIAL COMPOUND” (DISCUVA LIMITED, priority 2021, published 2024)
